The numbers were not newly measured in patent US20250261646A1, “SOLID COMPOSITION AS A SOLUBLE PRECURSOR OF AN ECO-FRIENDLY AND EFFECTIVE METAL-BASED BIOCIDE, PROCESS AND USE THEREOF” (BIOREM ENGINEERING SA, priority 2022, published 2025), which cites them from elsewhere.

As usually defined, the solubility is the dissolved amount per volume that the medium holds.

The conditions of this data set: for comparison.

For the compound `[O]=[Zn]` [ZnO, zinc(II) oxide], the solubility was 4 µg/mL.
